Test results from article PMC10057847, “Precision engineering of biological function with large-scale measurements and machine learning” (PLOS ONE, 2023).
Where “and” joins values, the source holds several entries; their conditions need not be identical. Identical values can stand only once.

Assays:
Assay in all cases: In vivo IPTG dose-response of LacI-regulated eYFP expression from the pVER plasmid in E. coli grown in rich M9 medium at 37 °C, measured by flow cytometry and fitted to the Hill equation by Bayesian MCMC (posterior mean and SD).
Type in all cases: cell-based, E. coli MG1655Δlac
Conditions in all cases: read-out: log_ec50 (base-10 logarithm of EC50 in μmol/L) (converted)
pVER-IPTG-004(V136E) = target: T1, pVER-IPTG-004(V136E) (Escherichia coli, UniProt P03023, A87P/E357G/V136E/V301M)
T1 construct: gene lacI; LacI expressed from pVER plasmid
Protocol: (§1) All reported measurements were completed using E. coli strain MG1655Δlac, in which the lactose operon of E. coli strain MG1655 (ATCC #47076) was replaced with the bleomycin resistance gene from Streptoalloteichus hindustanus (Shble).
(§2) Dose-response curves were measured with flow cytometry using E. coli MG1655Δlac transformed with variants of the pVER plasmid, described previously. The plasmid contained different variants of the lacI coding DNA sequence (CDS), as described in the text, and an expression cassette with enhanced yellow fluorescent protein (eYFP) under the control of the lactose operator (lacO). The lacI CDS was verified with Sanger sequencing for each variant.
(§3) All cultures were grown in a rich M9 media (3 g/L KH2PO4, 6.78 g/L Na2HPO4, 0.5 g/L NaCl, 1 g/L NH4Cl, 0.1 mmol/L CaCl2, 2 mmol/L MgSO4, 4% glycerol, and 20 g/L casamino acids) supplemented with 50 μg/mL kanamycin.
(§4) • Prepare first growth plate, with 450 μL rich M9 media in each well. • Pipette 50 μL of starter culture into each well in rows B-G of the plate (leaving rows A and H blank). • Use a E. coli containing a different lacI variant for each row. • Seal first growth plate with gas permeable membrane. • Incubate plate in plate reader for 12 h to 14 h. • Grow to stationary to provide a reproducible starting point for each measurement. • Prepare second growth plate with 490 μL in each well. • Dilution series of isopropyl-β-D-thiogalactopyranoside (IPTG): 11 columns of a 2-fold serial dilution gradient and one column with zero IPTG. • Ten minutes before the end of the incubation cycle for the first growth plate, move the second growth plate to a heated station set to 47°C. • Ten minutes at 47°C will pre-warm the media in the plate to 37°C. • De-seal the first growth plate (after completion of the stationary-phase incubation cycle). • Pipette 10 μL from each well in the first growth plate to the corresponding well in the second growth plate. • 50-fold dilution; using a 96-channel pipetting head. • Seal second growth plate with gas permeable membrane. • Incubate second growth plate in plate reader for 160 minutes. • Sufficient for approximately 10-fold increase in cell density or 3.3 doublings. • Prepare third growth plate with 450 μL in each well. • Same dilution series as in second growth plate. • Ten minutes before the end of the incubation cycle for the second growth plate, move the third growth plate to a heated station set to 47°C. • De-seal the second growth plate (after completion of the 160 minute incubation cycle). • Pipette 50 μL from each well in the second growth plate to the corresponding well in the third growth plate. • 10-fold dilution; using a 96-channel pipetting head. • Seal third growth plate with gas permeable membrane. • Incubate third growth plate in plate reader for 160 minutes. • Prepare flow cytometry sample plate (round-bottom 96-well plate, Falcon, 351177). • Each well in rows B-G: 195 μL 1x PBS with 170 μg/mL chloramphenicol (Fisher BioReagents, cat. #BP904-100). • Rows A and H: PBS blanks, focusing fluid blanks, and space for calibration bead sample • At the end of the incubation cycle for the third growth plate, pipette 5 μL from each well to the corresponding well in the flow cytometry sample plate.
(§5) Flow cytometry samples were measured with an Attune NxT flow cytometer equipped with a 96-well plate autosampler using a 488 nm excitation laser and a 530 nm ± 15 nm bandpass emission filter. Blank samples were measured with each batch of cell measurements, and an automated gating algorithm was used to discriminate cell events from non-cell events. Fluorescence calibration beads (Spherotech, part no. RCP-30-20A) were also measured with each batch of samples to facilitate calibration of flow cytometry data to molecules of equivalent fluorescein (MEF). […]

pVER-IPTG-079 = target: T2, pVER-IPTG-079 (Escherichia coli, UniProt P03023, A116T/S190C/T141I/V99E)
T2 construct: gene lacI; LacI expressed from pVER plasmid
Protocol: as §1, §2, §3, §4, §5

pVER-IPTG-002 = target: T3, pVER-IPTG-002 (Escherichia coli, UniProt P03023, M254I/S158R/T154I/V238D/V264I/V96E)
T3 construct: gene lacI; LacI expressed from pVER plasmid
Protocol: as §1, §2, §3, §4, §5

pVER-IPTG-004(S70R) = target: T4, pVER-IPTG-004(S70R) (Escherichia coli, UniProt P03023, A87P/E357G/S70R/V301M)
T4 construct: gene lacI; LacI expressed from pVER plasmid
Protocol: as §1, §2, §3, §4, §5

pVER-IPTG-076 = target: T5, pVER-IPTG-076 (Escherichia coli, UniProt P03023, A337S/L198Q/S102R/S260F/S93N/V99E)
T5 construct: gene lacI; LacI expressed from pVER plasmid
Protocol: as §1, §2, §3, §4, §5

pVER-IPTG-081 = target: T6, pVER-IPTG-081 (Escherichia coli, UniProt P03023, M347V/P285S/S308P/V301M)
T6 construct: gene lacI; LacI expressed from pVER plasmid
Protocol: as §1, §2, §3, §4, §5

pVER-IPTG-004(V80L) = target: T7, pVER-IPTG-004(V80L) (Escherichia coli, UniProt P03023, A87P/E357G/V301M/V80L)
T7 construct: gene lacI; LacI expressed from pVER plasmid
Protocol: as §1, §2, §3, §4, §5

pVER-IPTG-002(S70R) = target: T8, pVER-IPTG-002(S70R) (Escherichia coli, UniProt P03023, M254I/S158R/S70R/T154I/V238D/V264I/V96E)
T8 construct: gene lacI; LacI expressed from pVER plasmid
Protocol: as §1, §2, §3, §4, §5

pVER-IPTG-002(V80L) = target: T9, pVER-IPTG-002(V80L) (Escherichia coli, UniProt P03023, M254I/S158R/T154I/V238D/V264I/V80L/V96E)
T9 construct: gene lacI; LacI expressed from pVER plasmid
Protocol: as §1, §2, §3, §4, §5

pVER-IPTG-002(V136E) = target: T10, pVER-IPTG-002(V136E) (Escherichia coli, UniProt P03023, M254I/S158R/T154I/V136E/V238D/V264I/V96E)
T10 construct: gene lacI; LacI expressed from pVER plasmid
Protocol: as §1, §2, §3, §4, §5

pVER-IPTG-009 = target: T11, pVER-IPTG-009 (Escherichia coli, UniProt P03023, I210L/I283N/M254T/N157D/P76Q/Q181H/V150A)
T11 construct: gene lacI; LacI expressed from pVER plasmid
Protocol: as §1, §2, §3, §4, §5

[1] = target: T12, pVER-IPTG-075 (also pVER-IPTG-138) (Escherichia coli, UniProt P03023, A81S/E100K/L148V/Q60R/S221N/S28G/T34M/V271L)
T12 construct: gene lacI; LacI expressed from pVER plasmid
Protocol: as §1, §2, §3, §4, §5

T12 sequence (P03023 whole entry S28G/T34M/Q60R/A81S/E100K/L148V/S221N/V271L): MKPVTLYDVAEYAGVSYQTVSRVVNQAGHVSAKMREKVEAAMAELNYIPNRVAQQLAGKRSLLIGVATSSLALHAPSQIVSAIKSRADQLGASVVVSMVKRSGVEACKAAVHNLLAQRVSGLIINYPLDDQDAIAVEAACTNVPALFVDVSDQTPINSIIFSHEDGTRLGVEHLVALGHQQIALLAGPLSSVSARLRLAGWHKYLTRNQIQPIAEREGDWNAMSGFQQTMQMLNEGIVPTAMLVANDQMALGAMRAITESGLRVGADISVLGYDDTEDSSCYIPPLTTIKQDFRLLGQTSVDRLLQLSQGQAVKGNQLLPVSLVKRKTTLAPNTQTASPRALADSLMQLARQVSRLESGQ
T8 sequence (P03023 whole entry S70R/V96E/T154I/S158R/V238D/M254I/V264I): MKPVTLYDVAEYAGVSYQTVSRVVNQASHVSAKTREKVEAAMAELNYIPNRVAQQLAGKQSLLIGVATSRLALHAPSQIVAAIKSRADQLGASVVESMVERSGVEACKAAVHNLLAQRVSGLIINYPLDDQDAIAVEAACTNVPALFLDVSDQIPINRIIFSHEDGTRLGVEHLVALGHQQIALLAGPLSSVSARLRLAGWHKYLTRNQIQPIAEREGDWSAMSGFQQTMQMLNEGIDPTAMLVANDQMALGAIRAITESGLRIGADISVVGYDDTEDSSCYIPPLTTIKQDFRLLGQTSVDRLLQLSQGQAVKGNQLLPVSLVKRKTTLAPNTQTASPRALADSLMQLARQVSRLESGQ
T11 sequence (P03023 whole entry P76Q/V150A/N157D/Q181H/I210L/M254T/I283N): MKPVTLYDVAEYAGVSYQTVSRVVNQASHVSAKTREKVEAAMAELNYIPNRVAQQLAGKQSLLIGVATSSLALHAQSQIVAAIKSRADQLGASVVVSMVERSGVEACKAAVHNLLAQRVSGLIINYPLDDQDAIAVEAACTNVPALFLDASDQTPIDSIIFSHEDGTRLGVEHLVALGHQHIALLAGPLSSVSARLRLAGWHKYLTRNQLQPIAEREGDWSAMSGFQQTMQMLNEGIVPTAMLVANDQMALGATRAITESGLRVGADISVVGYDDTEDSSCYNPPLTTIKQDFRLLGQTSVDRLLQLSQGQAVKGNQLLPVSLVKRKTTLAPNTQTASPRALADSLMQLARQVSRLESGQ
T4 sequence (P03023 whole entry S70R/A87P/V301M/E357G): as the sequence (P03023 whole entry S70R/V96E/T154I/S158R/V238D/M254I/V264I) above, with A87P, E96V, I154T, R158S, D238V, I254M, I264V, V301M, E357G counted along it
T9 sequence (P03023 whole entry V80L/V96E/T154I/S158R/V238D/M254I/V264I): as the sequence (P03023 whole entry S70R/V96E/T154I/S158R/V238D/M254I/V264I) above, with R70S, V80L counted along it
T6 sequence (P03023 whole entry P285S/V301M/S308P/M347V): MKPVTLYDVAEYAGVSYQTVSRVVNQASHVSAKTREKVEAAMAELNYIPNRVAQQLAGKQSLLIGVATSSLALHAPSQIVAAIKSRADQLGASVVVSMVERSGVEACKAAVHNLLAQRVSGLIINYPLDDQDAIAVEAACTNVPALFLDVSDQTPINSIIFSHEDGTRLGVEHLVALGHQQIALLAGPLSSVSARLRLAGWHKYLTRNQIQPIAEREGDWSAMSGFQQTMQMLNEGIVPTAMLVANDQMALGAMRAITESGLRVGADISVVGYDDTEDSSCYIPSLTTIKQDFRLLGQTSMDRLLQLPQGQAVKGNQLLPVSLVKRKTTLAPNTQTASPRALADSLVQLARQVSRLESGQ
T3 sequence (P03023 whole entry V96E/T154I/S158R/V238D/M254I/V264I): as the sequence (P03023 whole entry S70R/V96E/T154I/S158R/V238D/M254I/V264I) above, with R70S counted along it
T5 sequence (P03023 whole entry S93N/V99E/S102R/L198Q/S260F/A337S): as the sequence (P03023 whole entry P285S/V301M/S308P/M347V) above, with S93N, V99E, S102R, L198Q, S260F, S285P, M301V, P308S, A337S, V347M counted along it
T10 sequence (P03023 whole entry V96E/V136E/T154I/S158R/V238D/M254I/V264I): as the sequence (P03023 whole entry S70R/V96E/T154I/S158R/V238D/M254I/V264I) above, with R70S, V136E counted along it
T1 sequence (P03023 whole entry A87P/V136E/V301M/E357G): as the sequence (P03023 whole entry P285S/V301M/S308P/M347V) above, with A87P, V136E, S285P, P308S, V347M, E357G counted along it
T2 sequence (P03023 whole entry V99E/A116T/T141I/S190C): as the sequence (P03023 whole entry P285S/V301M/S308P/M347V) above, with V99E, A116T, T141I, S190C, S285P, M301V, P308S, V347M counted along it
T7 sequence (P03023 whole entry V80L/A87P/V301M/E357G): as the sequence (P03023 whole entry P285S/V301M/S308P/M347V) above, with V80L, A87P, S285P, P308S, V347M, E357G counted along it

Structure (SMILES): CC(C)S[C@@H]1O[C@H](CO)[C@H](O)[C@H](O)[C@H]1O [IPTG, isopropyl-β-D-thiogalactopyranoside]
- EC50 (pVER-IPTG-004(V136E)): 421000 µmol/L
- EC50 (pVER-IPTG-079): 7.24 µmol/L
- EC50 (pVER-IPTG-002): 233 µmol/L
- EC50 (pVER-IPTG-004(S70R)): 3890 µmol/L
- EC50 (pVER-IPTG-076): 4.31 µmol/L
- EC50 (pVER-IPTG-081): 8.46 µmol/L
- EC50 (pVER-IPTG-004(V80L)): 36.8 µmol/L
- EC50 (pVER-IPTG-002(S70R)): 4690 µmol/L
- EC50 (pVER-IPTG-002(V80L)): 47.7 µmol/L
- EC50 (pVER-IPTG-002(V136E)): 464000 µmol/L
- EC50 (pVER-IPTG-009): 169 µmol/L
- EC50 [1]: 3 µmol/L and 2.99 µmol/L
